Legend:
[1] = test system: Phakopsora pachyrhizi (the causal agent of Asian soybean rust); test: Test A: preventive spray on soybean seedlings, Asian soybean rust, visual disease rating; type: in vivo; settings: soybean seedlings; for pest or weed control at 10 µg/mL: Phakopsora pachyrhizi, 216 h, read-out: Test A disease control rating
Procedure, shortened: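 Preventive test: soybean seedlings received a run-off spray of compound suspended at the set ppm in 50/50 acetone/water plus 250 ppm PEG400, and one day later a P. pachyrhizi spore inoculum. Visual scoring (0 none to 100 full disease control) followed 24 h saturated incubation and 8 days' growth chamber, both at 22° C.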

[2] = test system: Puccinia recondita f. sp. tritici (the causal agent of wheat leaf rust); test: Test C: preventive spray on wheat seedlings, wheat leaf rust, visual disease rating; type: in vivo; settings: wheat seedlings; for pest or weed control at 10 µg/mL: Puccinia recondita, 168 h, read-out: Test C disease control rating
Procedure, shortened: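 Wheat seedlings sprayed to run-off with compound in acetone/water (50/50) with 250 ppm PEG400, then inoculated with spores the following day. After 24 h saturated humidity at 20° C. and 6 days in growth chamber at 20° C., disease rated visually as % control relative to untreated controls.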

[3] = 50 ppm test suspension, 100 = 100% disease control, 0 = no control
[4] = test suspension 10 ppm, 100 = 100% disease control, 0 = no control
[5] = 10 ppm test suspension, 100 = 100% disease control, 0 = no control

With `C#CCNC(=O)C1=NOC(Cc2ccc(-c3noc(C(F)(F)F)n3)s2)C1` (stereo not shown) [compound 429] the “Test A disease control rating” value [1, 3] was 100% and the “Test C disease control rating” value [2, 3] was 100%.
Molecule `FC(F)(F)c1nc(-c2ccc(Cn3ncc4cccnc43)cc2)no1` [Compound 147, 1-[[4-[5-(trifluoromethyl)-1,2,4-oxadiazol-3-yl]phenyl]methyl]-1H-pyrazolo[3,4-b]pyridine] has a pest or weed control at 10 µg/mL [1, 4] of 100% and a pest or weed control at 10 µg/mL ([2]; test suspension 10 ppm) of 100%.
In the case of `CCOC(=O)c1cnn(C(C)c2ccc(-c3noc(C(F)(F)F)n3)s2)c1` (stereo not shown) [compound 247], the “Test A disease control rating” value [1, 4] is reported as 100% and the “Test C disease control rating” value ([2]; test suspension 10 ppm) is reported as 100%.
For `O=C(OCc1ccccc1)c1cnn(Cc2ccc(-c3noc(C(F)(F)F)n3)cc2)c1` [compound 412], the “Test A disease control rating” value [1, 5] was 100% and the “Test C disease control rating” value [2, 5] was 100%.
With `Cc1cc(C(=O)OCC#N)nn1Cc1ccc(-c2noc(C(F)(F)F)n2)cc1` [compound 184] the “Test A disease control rating” value [1, 4] was 100% and the “Test C disease control rating” value ([2]; test suspension 10 ppm) was 55%.
`Cc1cccc2cnn(Cc3ccc(-c4noc(C(F)(F)F)n4)cc3)c12` [compound 101] was tested, and the “Test A disease control rating” value ([1]; test suspension 50 ppm) was 100% and the “Test C disease control rating” value ([2]; test suspension 50 ppm) was 100%.
`CCCCCOC(=O)c1cnn(Cc2ccc(-c3noc(C(F)(F)F)n3)cc2)c1` [compound 447] was tested, and the “Test A disease control rating” value [1, 5] was 100% and the “Test C disease control rating” value [2, 5] was 100%.
In the case of `CC(C)(C)ONC(=O)c1cnn(Cc2ccc(-c3noc(C(F)(F)F)n3)cc2)c1` [compound 273], the “Test A disease control rating” value [1, 4] is reported as 100% and the “Test C disease control rating” value ([2]; test suspension 10 ppm) is reported as 100%.
For `Cc1cccc2nn(Cc3ccc(-c4noc(C(F)(F)F)n4)cc3)cc12` [compound 102], the “Test A disease control rating” value [1, 4] was 100% and the “Test C disease control rating” value ([2]; test suspension 10 ppm) was 99%.
With `CN(C)C(=O)c1nn(Cc2ccc(-c3noc(C(F)(F)F)n3)cc2)c2ccccc12` [compound 148] the “Test A disease control rating” value [1, 4] was 100% and the “Test C disease control rating” value ([2]; test suspension 10 ppm) was 96%.
For `CCOC(=O)CNC(=O)c1cnn(Cc2ccc(-c3noc(C(F)(F)F)n3)cc2)c1` [compound 378], the “Test A disease control rating” value [1, 4] was 100% and the “Test C disease control rating” value ([2]; test suspension 10 ppm) was 98%.
For `O=C(OCCBr)c1cnn(Cc2ccc(-c3noc(C(F)(F)F)n3)cc2)c1` [compound 478], the “Test A disease control rating” value [1, 3] was 81% and the “Test C disease control rating” value [2, 3] was 19%.
For `CCOC(=O)C1=NOC(Cc2ccc(-c3noc(C(F)(F)F)n3)s2)C1` (stereo not shown) [compound 366], the “Test A disease control rating” value ([1]; test suspension 50 ppm) was 100% and the “Test C disease control rating” value ([2]; test suspension 50 ppm) was 100%.
`N#CCNC(=O)c1nn(Cc2ccc(-c3noc(C(F)(F)F)n3)cc2)c2ccccc12` [compound 44] was tested, and the “Test A disease control rating” value [1, 4] was 100% and the “Test C disease control rating” value ([2]; test suspension 10 ppm) was 95%.
`CCC#CCOC(=O)c1cnn(Cc2ccc(-c3noc(C(F)(F)F)n3)cc2)c1` [compound 339] was tested, and the “Test A disease control rating” value [1, 4] was 100% and the “Test C disease control rating” value ([2]; test suspension 10 ppm) was 98%.
In the case of `N#Cc1cccc2c1cnn2Cc1ccc(-c2noc(C(F)(F)F)n2)cc1` [compound 105], the “Test A disease control rating” value ([1]; test suspension 50 ppm) is reported as 100% and the “Test C disease control rating” value ([2]; test suspension 50 ppm) is reported as 100%.
For `CN(C)C(=O)c1cnn(CCCc2ccc(-c3noc(C(F)(F)F)n3)cc2)c1` [compound 406], the “Test A disease control rating” value [1, 5] was 100% and the “Test C disease control rating” value [2, 5] was 93%.
In the case of `FC(F)(F)c1nc(-c2ccc(Cn3ncc4ncccc43)cc2)no1` [compound 408], the “Test A disease control rating” value [1, 5] is reported as 100% and the “Test C disease control rating” value [2, 5] is reported as 100%.
In the case of `CSc1nn(Cc2ccc(-c3noc(C(F)(F)F)n3)cc2)nc1C` [compound 31], the “Test A disease control rating” value [1, 4] is reported as 100% and the “Test C disease control rating” value ([2]; test suspension 10 ppm) is reported as 100%.
Molecule `COC(=O)c1ccn(Cc2ccc(-c3noc(C(F)(F)F)n3)cc2)c(=O)c1` [Compound 24, methyl 1,2-dihydro-2-oxo-1-[[4-[5-(trifluoromethyl)-1,2,4-oxadiazol-3-yl]phenyl]methyl]-4-pyridinecarboxylate] has a pest or weed control at 10 µg/mL [1, 4] of 100% and a pest or weed control at 10 µg/mL ([2]; test suspension 10 ppm) of 95%.
`N#Cc1ccc2nn(Cc3ccc(-c4noc(C(F)(F)F)n4)cc3)cc2c1` [compound 108] was tested, and the “Test A disease control rating” value ([1]; test suspension 50 ppm) was 100% and the “Test C disease control rating” value ([2]; test suspension 50 ppm) was 100%.
With `FC(F)(F)c1nc(-c2ccc(Cn3cc4c(I)ccnc4n3)cc2)no1` [compound 445] the “Test A disease control rating” value [1, 5] was 100% and the “Test C disease control rating” value [2, 5] was 99%.
For `O=C(c1csc(Cc2ccc(-c3noc(C(F)(F)F)n3)cc2)n1)N1CCC(F)(F)C1` [compound 207], the “Test A disease control rating” value [1, 4] was 100% and the “Test C disease control rating” value ([2]; test suspension 10 ppm) was 86%.
In the case of `CC(COC(=O)c1cnn(Cc2ccc(-c3noc(C(F)(F)F)n3)cc2)c1)=NO` [compound 223], the “Test A disease control rating” value [1, 4] is reported as 100% and the “Test C disease control rating” value ([2]; test suspension 10 ppm) is reported as 91%.
In the case of `CCOC(=O)c1cnn(Cc2ccc(-c3noc(C(F)(F)F)n3)cn2)c1` [compound 424], the “Test A disease control rating” value [1, 5] is reported as 100% and the “Test C disease control rating” value [2, 5] is reported as 96%.
`COCCNC(=O)c1cc(C)n(Cc2ccc(-c3noc(C(F)(F)F)n3)cc2)n1` [Compound 183, N-(2-methoxyethyl)-5-methyl-1-[[4-[5-(trifluoromethyl)-1,2,4-oxadiazol-3-yl]phenyl]methyl]-1H-pyrazole-3-carboxamide] gave a pest or weed control at 10 µg/mL [1, 4] of 100% and a pest or weed control at 10 µg/mL ([2]; test suspension 10 ppm) of 100%.
With `C#CCOC(=O)c1cnn(CCCc2ccc(-c3noc(C(F)(F)F)n3)cc2)c1` [compound 374] the “Test A disease control rating” value [1, 4] was 100% and the “Test C disease control rating” value ([2]; test suspension 10 ppm) was 96%.
In the case of `CCOC(=O)c1cn(Cc2ccc(-c3noc(C(F)(F)F)n3)cc2)c(=O)cn1` [compound 419], the “Test A disease control rating” value [1, 5] is reported as 96% and the “Test C disease control rating” value [2, 5] is reported as 99%.
For `CCCOC(=O)c1cnn(C(C)c2ccc(-c3noc(C(F)(F)F)n3)s2)c1` (stereo not shown) [compound 493], the “Test A disease control rating” value [1, 5] was 100% and the “Test C disease control rating” value [2, 5] was 100%.
`COc1ccc2c(C#N)n(Cc3ccc(-c4noc(C(F)(F)F)n4)cc3)nc2c1` [compound 121] was tested, and the “Test A disease control rating” value [1, 4] was 87% and the “Test C disease control rating” value ([2]; test suspension 10 ppm) was 0%.
With `N#Cc1cnn(CCc2ccc(-c3noc(C(F)(F)F)n3)cc2)c1` [compound 435] the “Test A disease control rating” value [1, 5] was 100% and the “Test C disease control rating” value [2, 5] was 74%.
In the case of `Nc1ncnc2c1cnn2Cc1ccc(-c2noc(C(F)(F)F)n2)cc1` [compound 407], the “Test A disease control rating” value [1, 5] is reported as 100% and the “Test C disease control rating” value [2, 5] is reported as 100%.
With `N#Cc1cnn(Cc2ccc(-c3noc(C(F)(F)F)n3)s2)c1` [compound 189] the “Test A disease control rating” value ([1]; test suspension 50 ppm) was 100% and the “Test C disease control rating” value ([2]; test suspension 50 ppm) was 100%.
For `FC(F)(F)c1nc(-c2ccc(CN3CCc4ccccc4C3)cc2)no1` [compound 351], the “Test A disease control rating” value [1, 4] was 92% and the “Test C disease control rating” value ([2]; test suspension 10 ppm) was 67%.
With `O=C(OCCCl)c1cnn(Cc2ccc(-c3noc(C(F)(F)F)n3)cc2)c1` [compound 477] the “Test A disease control rating” value [1, 5] was 100% and the “Test C disease control rating” value [2, 5] was 100%.
For `COc1ccn(Cc2ccc(-c3noc(C(F)(F)F)n3)cc2)c(=O)c1` [compound 421], the “Test A disease control rating” value [1, 5] was 100% and the “Test C disease control rating” value [2, 5] was 100%.
With `CCNC(=O)C1=NOC(Cc2ccc(-c3noc(C(F)(F)F)n3)s2)C1` (stereo not shown) [compound 369] the “Test A disease control rating” value ([1]; test suspension 50 ppm) was 100% and the “Test C disease control rating” value ([2]; test suspension 50 ppm) was 100%.
For `O=[N+]([O-])c1ccc2c(c1)c(Br)nn2Cc1ccc(-c2noc(C(F)(F)F)n2)cc1` [compound 30], the “Test A disease control rating” value [1, 4] was 25% and the “Test C disease control rating” value ([2]; test suspension 10 ppm) was 0%.
`CCOc1ccccc1OCCOC(=O)c1cnn(Cc2ccc(-c3noc(C(F)(F)F)n3)cc2)c1` [compound 268] was tested, and the “Test A disease control rating” value [1, 4] was 100% and the “Test C disease control rating” value ([2]; test suspension 10 ppm) was 86%.
In the case of `FC(F)(F)c1nc(-c2ccc(Cn3ncc4c(I)ccnc43)cc2)no1` [compound 444], the “Test A disease control rating” value [1, 5] is reported as 96% and the “Test C disease control rating” value [2, 5] is reported as 86%.
In the case of `CN(C)C(=O)C1COC(Cc2ccc(-c3noc(C(F)(F)F)n3)cc2)=N1` (stereo not shown) [Compound 178, 4,5-dihydro-N,N-dimethyl-2-[[4-[5-(trifluoromethyl)-1,2,4-oxadiazol-3-yl]phenyl]methyl]-4-oxazolecarboxamide], the pest or weed control at 10 µg/mL [1, 4] is reported as 96% and the pest or weed control at 10 µg/mL ([2]; test suspension 10 ppm) is reported as 68%.
`COc1ccc(C(O)c2ccc(-c3noc(C(F)(F)F)n3)cc2)cc1` (stereo not shown) [compound 309] was tested, and the “Test A disease control rating” value ([1]; test suspension 50 ppm) was 100% and the “Test C disease control rating” value ([2]; test suspension 50 ppm) was 68%.
For `O=C(NCC(F)(F)F)c1cnn(Cc2ccc(-c3noc(C(F)(F)F)n3)cc2)c1` [compound 449], the “Test A disease control rating” value [1, 5] was 100% and the “Test C disease control rating” value [2, 5] was 100%.
For `O=C(OCCN1CCOCC1)c1cnn(Cc2ccc(-c3noc(C(F)(F)F)n3)cc2)c1` [compound 475], the “Test A disease control rating” value [1, 5] was 100% and the “Test C disease control rating” value [2, 5] was 91%.
In the case of `FC(F)(F)c1nc(-c2ccc(Cn3ccc4ccccc43)s2)no1` [compound 196], the “Test A disease control rating” value [1, 4] is reported as 100% and the “Test C disease control rating” value ([2]; test suspension 10 ppm) is reported as 93%.
In the case of `FC(F)(F)c1nc(-c2ccc(Cn3ccc(S(F)(F)(F)(F)F)n3)cc2)no1` [compound 503], the “Test A disease control rating” value [1, 5] is reported as 43% and the “Test C disease control rating” value [2, 5] is reported as 0%.
For `C[Si](C)(C)CCNC(=O)c1coc(Cc2ccc(-c3noc(C(F)(F)F)n3)cc2)n1` [compound 206], the “Test A disease control rating” value [1, 4] was 98% and the “Test C disease control rating” value ([2]; test suspension 10 ppm) was 68%.
In the case of `CCCNC(=O)c1cnn(Cc2ccc(-c3noc(C(F)(F)F)n3)cc2)c1` [compound 68], the “Test A disease control rating” value [1, 4] is reported as 100% and the “Test C disease control rating” value ([2]; test suspension 10 ppm) is reported as 100%.
With `CCOC(=O)c1cn(Cc2ccc(-c3noc(C(F)(F)F)n3)cc2)nn1` [compound 303] the “Test A disease control rating” value [1, 4] was 100% and the “Test C disease control rating” value ([2]; test suspension 10 ppm) was 100%.
`FC(F)(F)c1nc(-c2ccc(Cn3nccc3S(F)(F)(F)(F)F)cc2)no1` [compound 504] was tested, and the “Test A disease control rating” value [1, 5] was 74% and the “Test C disease control rating” value [2, 5] was 0%.

From patent US20240090503A1, “FUNGICIDAL OXADIAZOLES AND THEIR MIXTURES” (FMC CORPORATION, priority 2020, published 2024)
